Values of other authors as cited in PMC4546328, “Effects of Inhibiting Dipeptidyl Peptidase-4 (DPP4) in Cows with Subclinical Ketosis” (PLoS ONE, 2015).

Design: method as in earlier work
Settings: prescribing information; primarily small increase of neutrophil granulocytes counts

effect on WBC: slight increase in WBC
Structure (SMILES): N[C@@H](CC(=O)N1CCn2c(nnc2C(F)(F)F)C1)Cc1cc(F)c(F)cc1F [sitagliptin]
